Source: US10835549B2, “Polyplexes” (Vanderbilt University, priority 2013, dated 2020)
No end group written: not given here.

Tests used:
rat aortic smooth muscle = assay: Rat aortic smooth muscle contraction (muscle bath, phenylephrine); conditions: 30 minutes incubation, phenylephrine challenge, n=6
Method: FIGS. 71-73 show the results of an example wherein rat aortic smooth muscle was suspended on a muscle bath apparatus. Tissue was equilibrated in bicarbonate buffer and challenged with KCl (110 mM) to confirm viability of the tissue. After returning the tissue to basal tension, the smooth muscle was challenged with 5*10^−8 M phenylephrine (5*10^−8 M) and then washed with bicarbonate buffer. The tissue was then returned to basal tension through subsequent washes of bicarbonate buffer and then either treated with control, AZX 100 peptide, or AZX polyplexes. After 30 minutes of incubation, the tissue was challenged with phenylephrine, and the contractile force was compared with the initial contraction to determine the percent inhibition that occurs. […] (n=6)

human saphenous vein = assay: HSV enhanced relaxation with AZX 100 (muscle bath, phenylephrine / sodium nitroprusside); conditions: 30 minutes incubation, n=3
[1] = test system: human bronchiolar airway smooth muscle (HASM); assay: Relaxation of human bronchiolar airway smooth muscle (HASM); design: unit not given here
[2] = Flow cytometric quantification of intracellular uptake and retention; conditions: human
Method: (§1) HCAVSMCs were grown to 80-90% confluence, harvested, and seeded at 20,000 cells per well in a 24-well plate and were allowed to adhere overnight in low serum media. […] Following treatment, cells were washed with PBS −/−, washed with CellScrub buffer (Genlantis) for 10 minutes at room temperature to remove extracellular polyplexes and/or peptide, washed 2× in PBS −/−, and the media was refreshed with complete growth media. Cells were then incubated for an additional 0, 12, 24, 72, or 120 hours. Cells were then washed with PBS −/−, trypsinized, and resuspended in 0.1% Trypan blue in PBS (−/−) for analysis on a FACSCalibur flow cytometer (Becton Dickinson) with BD CellQuest™ Pro software (V 5.2). Data was exported and analyzed with FlowJo software (V 7.6.4). All samples are run in triplicate.
(§2) Studies were done using a fluorescently labeled peptide and flow cytometry. […] Exponential lines were fit to each data set in order to determine a fluorescence half-life for each treatment group. Mean Fluorescence Intensity values were reported as increase in MFI compared to untreated controls, n=3.

HCAVSMCs = assay: as above; conditions: HCAVSMCs, up to 5 days after treatment
Method: as §1, §2

Row | Substance | inhibition of contraction (rat aortic smooth muscle) | enhancement of relaxation (human saphenous vein) | Relaxation of HASM ([1]; HASM 11, .5 mM) | Relaxation of HASM ([1]; HASM 17, 1 mM) | Relaxation of HASM ([1]; HASM 17, .5 mM) | Relaxation of HASM ([1]; HASM 18, 1 mM) | Relaxation of HASM ([1]; HASM 20, 1 mM) | Relaxation of HASM ([1]; HASM 20, .5 mM) | Relaxation of HASM ([1]; HASM 22, 1 mM) | Relaxation of HASM ([1]; HASM 22, .5 mM) | half-life at 10 μM [2] [h] | intracellular retention of the peptide (HCAVSMCs)
1 | AZX 100 peptide: AZX100 peptide (SEQ ID NO: 2), which can be utilized for airway relaxation (YARAAARQARAWLRRASAPLPGLK; AZX-100 Sequence) | dose dependent inhibition of contraction | dose dependent enhancement of relaxation | 24 | 25 | 10 | 80 | 76 | 36 | 84 | 40 |  | 
2 | YARAAARQARAKALARQLGVAA [MK2i] |  |  |  |  |  |  |  |  |  |  | 98.4 | more rapidly lost intracellular peptide
